Assay results from US20110301194A1, “Method for Determining Treatment Efficacy” (ArQule, Inc., priority 2010, published 2011).

System: various cancers
Test: Anti-proliferative effect of combinations, in vitro and in vivo
Text: These cancers include, but are not limited to, lung cancer, small cell lung cancer, non-small cell lung cancer, colon cancer, breast cancer, pancreatic cancer, prostate cancer, renal cancer, cervical cancer, brain cancer, gastric/stomach cancer, uterine cancer, intestinal cancer, hepatic cancer, chronic myelogenous leukemia, melanoma, ovarian cancer, translocation-associated renal cell carcinoma (RCC), alveolar soft part sarcoma (ASPS), clear cell sarcoma (CCS), and hepatocellular carcinoma. The anti-proliferative effects of these combinational treatments are increased/enhanced in cell proliferative disorders and cancers in which the effected cells constitutively express or over-express c-Met. In addition, synergistic anti-proliferative effects are shown by (−)-trans-3-(5,6-dihydro-4H-pyrrolo[3,2,1-ij]quinolin-1-yl)-4-(1H-indol-3-yl) pyrrolidine-2,5-dione in combination with sorafenib in breast cancer, cervical cancer, lung cancer, small cell lung cancer, non-small cell lung cancer, melanoma, colon cancer, pancreatic cancer, renal cancer and gastric/stomach cancer; by (−)-trans-3-(5,6-dihydro-4H-pyrrolo[3,2,1-ij]quinolin-1-yl)-4-(1H-indol-3-yl)pyrrolidine-2,5-dione in combination with sunitinib in gastric/stomach cancer; by (−)-trans-3-(5,6-dihydro-4H-pyrrolo[3,2,1-ij]quinolin-1-yl)-4-(1H-indol-3-yl)pyrrolidine-2,5-dione in combination with erlotinib in lung cancer, small cell lung cancer, non-small cell lung cancer and colon cancer; and by (−)-trans-3-(5,6-dihydro-4H-pyrrolo[3,2,1-ij]quinolin-1-yl)-4-(1H-indol-3-yl)pyrrolidine-2,5-dione in combination with cisplatin in pancreatic cancer.

Compound: O=C1NC(=O)[C@@H](c2cn3c4c(cccc24)CCC3)[C@@H]1c1c[nH]c2ccccc12 [Agent A, (−)-trans-3-(5,6-dihydro-4H-pyrrolo[3,2,1-ij]quinolin-1-yl)-4-(1H-indol-3-yl)pyrrolidine-2,5-dione]
- anti-proliferative effects in combination with sorafenib (breast, cervical, lung, small cell lung, non-small cell lung cancer, melanoma, colon, pancreatic, renal and gastric/stomach cancer): synergistic
- anti-proliferative effects in combination with sunitinib (gastric/stomach cancer): synergistic
- anti-proliferative effect in combination (in combination with sorafenib, sunitinib, erlotinib, gefitinib, cisplatin, carboplatin or capecitabine, various cancers, in vitro and in vivo): at least an additive
- anti-proliferative effects in combination with erlotinib (lung, small cell lung, non-small cell lung and colon cancer): synergistic
- anti-proliferative effects in combination with cisplatin (pancreatic cancer): synergistic
